US9006487B2, “Amine-containing lipids and uses thereof” (Massachusetts Institute of Technology, priority 2005, dated 2015)

Key:
[1] = DNA delivery: raw luciferase expression (relative light units) of best-transfecting lipids; assay type: cell-based; details: 300 ng of DNA per well
Method: Raw values for luciferase expression (relative lights units) of best-transfecting lipids at lipid/DNA (w/w) ratios listed. 300 ng of DNA was added per well.

cos-7 cells = assay: DNA transfection: luciferase expression relative to Lipofectamine 2000; assay type: cell-based; details: 300 ng Luciferase DNA per well, luciferase assay after 48 hours
In short: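 Lipid/DNA complexes, 300 ng luciferase DNA per well at 2.5-25 w/w lipid:DNA, were formed in sodium acetate/Optimem and added to overnight-seeded cos-7 cells. Luciferase was measured by Bright-Glo luminescence after 48 hours and quantified against an enzyme standard curve. Values are expressed as % of Lipofectamine 2000 at 2.5 w/w.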

| Raw values for luciferase expression ([1]; lipid/DNA 2.5 w/w) [relative lights units] | Raw values for luciferase expression ([1]; lipid/DNA 5 w/w) [relative lights units] | Raw values for luciferase expression ([1]; lipid/DNA 10 w/w) [relative lights units] | Raw values for luciferase expression ([1]; lipid/DNA 15 w/w) [relative lights units] | Compound | Luciferase expression as a percentage of that achieved using Lipofectamine 2000 (cos-7 cells; lipid/DNA 2.5 w/w) [%] | Luciferase expression as a percentage of that achieved using Lipofectamine 2000 (cos-7 cells; lipid/DNA 5 w/w) [%] | Luciferase expression as a percentage of that achieved using Lipofectamine 2000 (cos-7 cells; lipid/DNA 10 w/w) [%] | Luciferase expression as a percentage of that achieved using Lipofectamine 2000 (cos-7 cells; lipid/DNA 15 w/w) [%] | Luciferase expression as a percentage of that achieved using Lipofectamine 2000 (cos-7 cells; lipid/DNA 20 w/w) [%] | Luciferase expression as a percentage of that achieved using Lipofectamine 2000 (cos-7 cells; lipid/DNA 25 w/w) [%] |
| --- | --- | --- | --- | --- | --- | --- | --- | --- | --- | --- |
| 3202948 | 9767 |  |  | CCCCCCCCCCCCCCCCNC(=O)CCN(CCC(=O)NCCCCCCCCCCCCCCCC)CCN(CCC(=O)NCCCCCCCCCCCCCCCC)CCC(=O)NCCCCCCCCCCCCCCCC [NP99] |  |  |  |  |  |  |
| 1180418 | 1543275 | 1388102 | 798342 | CCCCCCCCCCCCCCCCNC(=O)CCN(C)CCCN(C)CCC(=O)NCCCCCCCCCCCCCCCC [NP63] |  |  |  |  |  |  |
| 1452027 | 765795 |  |  | CCCCCCCCCCCCCCCNC(=O)CCN(CC)CCN(CC)CCC(=O)NCCCCCCCCCCCCCCC [NG61] |  |  |  |  |  |  |
|  |  | 595340 | 1323915 | CCCCCCCCCCCCCCCCNC(=O)CCN(CCC(=O)NCCCCCCCCCCCCCCCC)CCN(CCO)CCO [NP86] |  |  |  |  |  |  |
|  |  | 1207376 | 1192838 | CCCCCCCCCCCCCCCCNC(=O)CCN(CCCN(CCO)CCO)CCC(=O)NCCCCCCCCCCCCCCCC [NP87] |  |  |  |  |  |  |
| 972002 | 1184771 |  |  | CCCCCCCCCCCCCCCNC(=O)CCN(CCC(=O)NCCCCCCCCCCCCCCC)CCC1CCCN1C (stereo not drawn) [NG77] |  |  |  |  |  |  |
| 1141469 | 865897 | 3031718 | 1138429 | CCCCCCCCCCCCCCNC(=O)CCN(C)CCCN(C)CCC(=O)NCCCCCCCCCCCCCC [NF63] |  |  |  |  |  |  |
|  |  |  |  | CCCCCCCCCCOC(=O)CCN(CCC(=O)OCCCCCCCCCC)C1CCC(O)CC1 (stereo not drawn) [LB38] | 0.7 | 0.8 | 0.7 | 0.8 | 0.7 | 0.8 |
|  |  |  |  | CCCCCCCCCCCCCCOC(=O)CCN(CCCCCCO)CCC(=O)OCCCCCCCCCCCCCC [LF36] | 0.1 | 0.1 | 0.1 | 0.1 | 0.1 | 0.1 |
|  |  |  |  | CCCCCCCCCCOC(=O)CCN(CCC(=O)OCCCCCCCCCC)CC(OC)OC [LB13] | 0.1 | 0.1 | 0.1 | 0.1 | 0.1 | 0.1 |
|  |  |  |  | CCCCCCCCCCCCCCCOC(=O)CCN(CCCCO)CCC(=O)OCCCCCCCCCCCCCCC [LG28] | 0.2 | 0.5 | 0.2 | 0.2 | 0.1 | 0.2 |
|  |  |  |  | CCCCCCCCCCCCCCOC(=O)CCN(CCC(=O)OCCCCCCCCCCCCCC)CC1CCCO1 (stereo not drawn) [LF15] | 0.1 | 0.1 | 0.0 | 0.0 | 0.1 | 0.1 |
